The subject of test [1] is client owned cats with CKD (IRIS stage 3). Kind of test: Exploratory clinical field study - cats (Example 1). In kind it is in vivo, cat. To be noted: CKD IRIS stage 3, 0.1 mg/kg bodyweight orally once daily. As to the method: (§1) Client owned patients diagnosed with CKD (IRIS stage 3) diagnosed via physical examination and biomarker levels are orally treated once daily with velagliflozin 0.1 mg/kg bodyweight. During the study period the body weight, body condition score, biomarker levels (creatinine and SDMA), presence of concomitant conditions and need for further medication are examined on regular basis during the visits at the site by the investigator. The parameters examined are creatinine and SDMA levels, proteinuria, blood pressure, quality of life, and hydration status. Additionally, variables as the delayed onset of renal failure, survival time of the cat patients, IRiS stage progression and renal related mortality and/or morbidity are observed.

Test [2] deals with client owned dogs with CKD (IRIS stage 3). Kind of test: Exploratory clinical field study - dogs (Example 2). To be noted: CKD IRIS stage 3, 0.3 mg/kg bodyweight orally once daily. In kind it is in vivo, dog. How it is done:
as §1, with “velagliflozin 0.3” for “velagliflozin 0.1”, “SDMA), proteinuria,” for “SDMA),”, “blood pressure” for “blood pressure, quality of life,”, “the dog” for “the cat”

The test system of test [3] is client owned dogs with CKD. The test can be described thus: Exploratory clinical field trial in client owned dogs with CKD (Example 4). In kind it is in vivo, dog. The conditions noted are these: 0.05 mg/kg bodyweight orally once daily. How it is done: as §1, with “CKD” for “CKD (IRIS stage 3)”, “velagliflozin 0.05” for “velagliflozin 0.1”, “SDMA), proteinuria,” for “SDMA),”, “blood pressure” for “blood pressure, quality of life,”, “the dog” for “the cat”, “patients, IRIS” for “patients, IRiS”

Structures are written as SMILES.

Turning to `N#Cc1ccc([C@@H]2O[C@H](CO)[C@@H](O)[C@H](O)[C@H]2O)cc1Cc1ccc(C2CC2)cc1` [velagliflozin, Velagliflozin], the “effect on renal function” value in test [1], in test [2] and in test [3] was “beneficial effect on renal function” throughout. For the same compound, the “progression of the disease” value in test [1], in test [2] and in test [3] was “delay in progression of the disease” each time.

For the origin of these results see patent US20240307426A1, “USE OF SGLT-2 INHIBITORS FOR THE PREVENTION AND/OR TREATMENT OF RENAL DISEASES IN NON-HUMAN MAMMALS” (BOEHRINGER INGELHEIM VETMEDICA GMBH, priority 2021, published 2024).
